According to US4822815A, “Dioxane hexenoic acids” (Imperial Chemical Industries PLC, priority 1985, dated 1989):

Key:
TXA2 [1] = assay: TXA2 antagonism in general (statement in words)
From the text: (§1) As stated earlier, the acids of formula I are antagonists of one or more of the actions of TXA2, for example certain of its actions on blood platelets, the vasculature and/or the lung.

[2] = tested on: U46619 induced bronchoconstriction; assay: Test (c) bronchoconstriction test, Konzett-Rossler anaesthetised guinea-pig model; assay type: in vivo; conditions: 2 hours after oral dosing at 0.05 mg/kg
From the text: (c) a bronchoconstriction test involving measuring the inhibition by a test compound of the broncho-constriction induced in the Konzett-Rossler, anaesthetised guinea-pig model (as modified by Collier and James, Brit.J.Pharmacol., 1967, 30, 283-307) by intravenous administration of the TXA2 mimetic agent, U46619 and involving:
(i) obtaining a cumulative dose-response curve to U46619 induced bronchoconstriction by intravenous administration of constant volumes of increasing concentrations of U46619 (0.2-4 μg/kg) in physiological saline solution and expressing bronchoconstriction as the maximum of that theoretically obtainable with no air flow to the test animal;
(ii) generating a cumulative dose-response curve to U46619 induced bronchoconstriction at 30 minute intervals for 3 hours after oral dosing of test compound; and
(iii) calculating a dose-ratio for the test compound (that is the ratio of concentration of U46619 required to cause 50% bronchoconstriction in the presence and absence of test compound) indicating the potency of TXA2 antagonism.

TXA2 [3] = assay: Test (a) rabbit aortal strip model, U46619 as agonist; assay type: cell-based; conditions: ±0.05
Method: as §1
(a) The rabbit aortal strip model devised by Piper and Vane (Nature, 1969, 223, 29-35) using as agonist a freshly prepared sample of TXA2, generated by addition of arachidonic acid (25 μg) to citrated, platelet rich rabbit plasma (250 μl) and allowing the mixture to aggregate fully over 90 seconds before use; alternatively the TXA2 mimetic agent known as U46619 (described by R L Jones et alia in "Chemistry, Biochemistry and Pharmacological Activity of Prostanoids" edited by S M Roberts and F Scheinmann, at page 211; Pergamon Press, 1979) may be used as the agonist;

[4] = target: T1, U46619 stimulated platelet aggregation (Homo sapiens, UniProt P21731); assay: Test (b) blood platelet aggregation test (human citrated platelet-rich plasma, U46619); assay type: cell-based; conditions: U46619 stimulated aggregation of human platelets; averaged over several concentrations
T1 construct: human, citrated, platelet-rich plasma; endogenous in cells; host or cells: human platelets in citrated platelet-rich plasma
T1 sequence (P21731 1-343): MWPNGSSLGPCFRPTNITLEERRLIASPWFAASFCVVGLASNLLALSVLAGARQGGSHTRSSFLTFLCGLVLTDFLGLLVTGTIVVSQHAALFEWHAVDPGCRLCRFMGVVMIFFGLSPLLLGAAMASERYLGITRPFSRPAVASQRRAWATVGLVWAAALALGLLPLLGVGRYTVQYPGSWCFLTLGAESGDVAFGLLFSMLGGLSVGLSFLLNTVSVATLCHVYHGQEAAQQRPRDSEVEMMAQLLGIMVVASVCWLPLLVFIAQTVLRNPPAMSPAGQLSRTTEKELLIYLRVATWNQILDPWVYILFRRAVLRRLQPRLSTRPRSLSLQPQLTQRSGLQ
From the text: (b) A blood platelet aggregation test based on that described by Born (Nature, 1962, 194, 927-929) and involving:
(i) aggregating human, citrated, platelet-rich plasma by addition of the TXA2 mimetic agent U46619 so that a dose-response curve is generated,
(ii) generating a dose-response curve for U46619 stimulated platelet aggregation in the presence of decreasing amounts of test compound (generally in the range 10^-5 M to 10^-10 M); and
(iii) calculating a KB value indicating potency of TXA2 antagonism for the test compound, averaged over several concentrations, from the calculated 50% response value for U46619 aggregation in the presence and absence of test compound; and […]

[5] = tested on: hypertensive effect of U46619; assay: Test (d) hypertensive effect of U46619 in anaesthetised rats; assay type: in vivo, rat (Alderley Park strain)
Method: (d) Male rats (Alderley Park strain) are anaesthetised with sodium pentobarbital and blood pressure is monitored at the carotid artery. The TXA2 mimetic agent is administered intravenously via the jugular vein and an ED50 (dose necessary to produce 50% of the maximum hypertensive effect) is established (n=3). [The ED50 for U46619 is approximately 5 μg/kg.] A test compound is then administered either intravenously (via the jugular vein) or orally (via a cannula) directly into the stomach and the animal challenged with an ED50 dose of U46619, five minutes after dosing with test compound and then successively every ten minutes until the hypertensive effect of U46619 is no longer blocked.

| SMILES | antagonism of one or more of the actions of TXA2 (in words) (TXA2 [1]) | dose ratio [2] | pA2 (U46619) (TXA2 [3]) | Kb [4] [µM] | duration of inhibition of the hypertensive effect of U46619 ([5]; about 80% inhibition, oral dose of 0.05 mg/kg) | inhibition of the hypertensive effect of U46619 ([5]; oral dose of 0.05 mg/kg, for more than 1 hour) | ED50 ([5]; Rattus norvegicus, intravenous via the jugular vein, n=3, read-out: ED50 (dose necessary to produce 50% of the maximum hypertensive effect)) [µg/kg] |
| --- | --- | --- | --- | --- | --- | --- | --- |
| N#Cc1ccc([C@@H]2OC[C@H](C/C=C\CCC(=O)O)[C@H](c3ccccc3O)O2)s1 (relative stereo) [Example 9, 4(2)-6([2,4,5-cis]-2-[5-cyano-2-thienyl]-4-o-hydroxphenyl-1,2-dioxan-5-yl)hexenoic acid] | especially potent antagonists |  |  |  |  |  |  |
| O=C(O)CC/C=C\C[C@H]1CO[C@@H](c2ccc([N+](=O)[O-])s2)O[C@H]1c1ccccc1O (relative stereo) [Example 4] | especially potent antagonists | > 100 | 8.3 | 0.00754 | more than 1 hour | about 80% |  |
| CCCCC[C@H](O)/C=C/[C@@H]1[C@@H](C/C=C\CCCC(=O)O)[C@H]2CO[C@@H]1C2 [Example U46619, reference compound] |  |  |  |  |  |  | ~5 |
| O=C(O)CC/C=C\C[C@H]1CO[C@@H](c2ccsc2)O[C@H]1c1ccccc1O (relative stereo) [Example 8, 4(Z)-6-([2,4,5-cis-]-4-o-hydroxy-phenyl-2-[3-thienyl]-1,3-dioxan-5-yl)hexenoic acid] | especially potent antagonists | 3 | 7.6 | 0.0138 |  |  |  |
